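All cell lines were grown in 96-well plates and treated with compound for 48 hours. Abbreviation: GI50, concentration required for 50% inhibition of growth. TGI denotes the concentration required for complete inhibition of growth.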
How the values were obtained:
Experiment in all cases: DTP human tumour cell line panel, 48 h
UACC-257 melanoma = system: UACC-257 melanoma
NCI-H226 lung = system: NCI-H226 lung
EKVX NSCLC = system: EKVX NSCLC
TK-10 renal = system: TK-10 renal
OVCAR-5 ovarian = system: OVCAR-5 ovarian
SK-MEL-28 melanoma = system: SK-MEL-28 melanoma
K-562 leukemia = system: K-562 leukemia
HL-60(TB) leukemia = system: HL-60(TB) leukemia
HT29 colon = system: HT29 colon
SK-OV-3 ovarian = system: SK-OV-3 ovarian

| Compound | TGI (UACC-257 melanoma) [µM] | TGI (NCI-H226 lung) [µM] | TGI (EKVX NSCLC) [µM] | TGI (TK-10 renal) [µM] | TGI (OVCAR-5 ovarian) [µM] | TGI (SK-MEL-28 melanoma) [µM] | TGI (K-562 leukemia) [µM] | TGI (HL-60(TB) leukemia) [µM] | TGI (HT29 colon) [µM] | TGI (SK-OV-3 ovarian) [µM] | GI50 (NCI-H226 lung) [µM] |
| --- | --- | --- | --- | --- | --- | --- | --- | --- | --- | --- | --- |
| Cc1cc(C)c2c(=O)cc(-c3cccc(F)c3)[nH]c2n1 | > 100 | 7.4 | > 100 | > 100 | > 100 | 92.9 | > 32.1 | 0.226 | 1.8 | > 100 |  |
| CCn1c2ccc(C(=O)CCCN3CCCCC3)cc2c2cc(C(=O)CCCN3CCCCC3)ccc21 | 3.77 | 27.2 | 15.8 | 15.9 | 22.8 | 34.8 | > 22.6 | > 100 | 4.2 | 13.4 |  |
| O=C1C=CC=C/C1=C1\N=C(c2ccccc2OCC(=O)c2ccccc2)SS1 | > 100 | > 100 | > 100 | > 100 | > 100 | > 100 | > 100 | > 100 | > 100 | > 100 |  |
| COc1ccc(OC2OC(CO)C(OCc3ccccc3)C(OCc3ccccc3)C2OCc2ccccc2)cc1 (stereo unspecified) | > 100 | > 100 | > 100 | > 100 | > 100 | > 100 | > 100 | > 100 | > 100 | > 100 |  |
| COC(=O)C1C(C(=O)OC)C2(OC(c3ccc(Cl)cc3)=CC2=O)C12OC(c1ccc(Cl)cc1)=CC2=O (stereo unspecified) | 48.8 | > 100 | 54.9 | 48.5 | 95.1 | > 100 | 53.5 | 8.29 | 45.2 | > 100 |  |
| CC1C(NNc2ccccc2)Oc2cc3c(cc2C1c1ccccc1O)OCO3 (stereo unspecified) | 20.5 | 33.2 | 23.3 | 18.3 | 19.1 | 26.6 | 4.34 | 15.1 | 19.4 | 22.3 |  |
| CC(C)C(=O)C(C)(C)CCc1ccccn1 | > 100 | > 100 | > 100 | > 100 | > 100 | > 100 | > 100 | > 100 | > 100 | > 100 |  |
| C=C1C(OC2O[C@@H]3O[C@@]4(C)CC[C@H]5[C@H](C)CC[C@@H](C2=C)[C@@]35O4)O[C@@H]2O[C@@]3(C)CC[C@H]4[C@H](C)CC[C@@H]1[C@@]24O3 (stereo partly specified) | > 50 | > 50 | > 50 | > 50 | > 50 | > 50 | > 50 | > 50 | > 50 | > 50 |  |
| CCCCSc1nsc(N(C(=O)c2ccccc2)C(=O)c2ccccc2)n1 | 74.9 | 93.9 | 77.4 | > 100 | 89.4 | > 100 | 99.7 | 74 | 82.5 | > 100 |  |
| COc1ccc(C2C3=C(COC3=O)Oc3cc4c(cc32)OCO4)c(OC)c1 (stereo unspecified) | > 100 | > 100 | > 100 | > 100 | > 100 | > 100 | 87.3 | 39.9 | > 100 | 93.1 |  |
| C=C(C)OCOCCOC | > 100 | > 100 | > 100 | > 100 | > 100 | > 100 | > 100 | > 100 | > 100 | > 100 |  |
| O=C(O)c1cccc2cccc(-c3cccc4cccc(C(=O)O)c34)c12 | > 100 | > 100 | > 100 | > 100 | > 100 | > 100 | > 100 | > 100 | > 100 | > 100 |  |
| O=C(OCCN=c1c2ccccc2ccc2ccccc12)c1ccccc1 | > 100 | > 100 | > 100 | > 100 | > 100 | > 100 | > 100 | > 100 | > 100 | > 100 |  |
| O=C1NC2CCCCC2N=C1CC(=O)c1ccc(Br)cc1 (stereo unspecified) | > 100 | 81.2 | 93.8 | > 100 | > 100 | > 100 | > 100 | > 100 | > 100 | > 100 |  |
| COc1ccccc1CN=C1Nc2ccncc2S(=O)(=O)N1c1ccccc1 | > 100 | > 100 | > 100 | > 100 | > 100 | > 100 | > 100 | > 100 | > 100 | > 100 |  |
| CC(C)c1cccc(C(C)C)c1NC(=O)/C(CC(=O)CC(c1ccccc1)c1c(O)c2ccccc2oc1=O)=N/O (stereo unspecified) | > 100 | > 100 | > 100 | > 100 | > 100 | > 100 | > 100 | > 100 | > 100 | > 100 |  |
| CCOc1ccc(Nc2nc(N)nc(N)c2N)cc1 | > 100 | > 100 | > 100 | > 100 | > 100 | > 100 | 50.1 | > 100 | 33.3 | > 100 |  |
| O=S(=O)(c1cc(Cl)ccc1Cl)n1ccnc1 | > 100 | 52.8 | > 100 | > 100 | > 100 | > 100 | > 100 | 88 | > 100 | > 100 |  |

| Compound | TGI (UACC-257 melanoma) [µM] | TGI (NCI-H226 lung) [µM] | TGI (EKVX NSCLC) [µM] | TGI (TK-10 renal) [µM] | TGI (OVCAR-5 ovarian) [µM] | TGI (SK-MEL-28 melanoma) [µM] | TGI (K-562 leukemia) [µM] | TGI (HL-60(TB) leukemia) [µM] | TGI (HT29 colon) [µM] | TGI (SK-OV-3 ovarian) [µM] | GI50 (NCI-H226 lung) [µM] |
| --- | --- | --- | --- | --- | --- | --- | --- | --- | --- | --- | --- |
| CN(C)CCCNC(=O)c1cc(NC(=O)c2cc(NC(=O)CCCn3c4ccccc4c4ccccc43)cn2C)cn1C | 41.2 | 39 | 46.2 | 39.3 | > 57.7 | 92 | 11.6 | > 72.4 | > 100 | 30.8 | 9.26 |
| CC1CCC2(NC1)OC1CC3C4CC=C5CC(OC6OC(CO)C(OC7OC(C)C(O)C(O)C7O)C(O)C6OC6OC(C)C(O)C(O)C6O)CCC5(C)C4CCC3(C)C1C2C (stereo unspecified) | 6.67 | 7.97 | 6.4 | 15.1 | 16.1 | 4.41 | 28.7 | > 36 | 15.6 | 19.5 |  |
| CN1C(=O)N(C)C(O)C(Cl)(Br)C1=O (stereo unspecified) | > 100 | > 100 | > 100 | > 100 | > 100 | > 100 | > 100 | > 100 | > 100 | > 100 |  |
| N#CC1(O)CCCCCCCCCCC1 | > 100 | > 100 | > 100 | > 100 | > 100 | > 100 | > 100 | > 100 | > 100 | > 100 |  |
| CSc1nc(NC(C)C)c2c(n1)Sc1nc3ccccc3n1N=C2 | > 100 | > 100 | > 100 | 36.8 | > 100 | > 100 | > 100 | > 100 | > 100 | 28.2 |  |
| Cc1cc(S(=O)(=O)/N=C(/C(=C=[N-])C#N)[n+]2ccc(N(C)C)cc2)c(SCC(=O)O)cc1Cl | > 100 | > 100 | > 100 | > 100 | > 100 | > 100 | > 100 | > 100 | > 100 | > 100 |  |
| CS(=O)(=O)CSCSSCS(C)(=O)=O | > 100 | > 100 | > 100 | > 100 | > 93.8 | 66.4 | > 95.5 | 55.7 | > 100 | > 100 |  |
| OCCOCn1nncc1Cn1ncc2c(SCc3ccccc3)ncnc21 | > 100 | > 100 | > 100 | > 100 | > 100 | > 100 | > 100 | 53.5 | > 100 | > 100 |  |
| Cc1cc(C)c(S(=O)(=O)N(CCCN)OCCCON(CCCN)S(=O)(=O)c2c(C)cc(C)cc2C)c(C)c1 | 3.44 | 7.66 | 19.4 | 16.5 | 5.86 | 3.94 | > 22.5 | 5.64 | 3.22 | 3.58 |  |
| CN(C)CC1CCC/C(=C\c2ccc(OC(=O)c3ccc(Cl)cc3)cc2)C1=O (stereo unspecified) | 16.7 | 9.77 | 6.16 | 5.19 | 5.95 | 8.52 | 3.8 | 11.9 | 4.1 | 34.6 |  |
| CCOC(=O)c1s/c(=N\Nc2nc3ccccc3cc2C2OCCO2)n(Cc2ccccc2)c1C | > 100 | > 100 | > 100 | > 100 | > 100 | > 100 | > 100 | > 100 | > 100 | > 100 |  |
| O=c1[nH]c2nc3ccccc3nc2[nH]c1=O | > 100 | > 100 | > 100 | > 100 | > 100 | > 100 | > 100 | > 100 | > 100 | > 100 |  |
| C[C@]12CCC(=O)[C@@H](CCC3=CC(=O)C=CC3=O)[C@@H]1CCC2=O | 39 | 57.3 | 47.5 | 30.4 | > 75.1 | 37.1 | > 100 | 39.1 | 82.2 | 63.9 |  |
| COc1ccccc1C1Nn2c(nc3ccccc3c2=O)N1c1ccc(C)cc1 (stereo unspecified) | 43.3 | 9.94 | 34.6 | 22.7 | 26.6 | 20.3 | 33.8 | 49.1 | 29.5 | 15.7 |  |
| COC(=O)[C@@H]1CCCCC[C@H]2C(CO)=C(C)C(=O)C12 (stereo partly specified) | > 100 | > 100 | > 100 | > 100 | > 100 | > 100 | > 100 | > 100 | > 100 | > 100 |  |
| O=c1nc2c(c(-c3ccc(Br)cc3)[nH]1)COC/C2=C\c1ccc(Br)cc1 | > 50 | > 50 | > 50 | > 50 | > 50 | > 50 | > 50 | > 50 | > 50 | > 50 |  |
| COC(=O)C1(CCCCCBr)CCCCCCCCCCC1=O (stereo unspecified) | 70.2 | 66.6 | > 100 | > 100 | > 100 | 92.2 | > 100 | 49.9 | > 100 | > 100 |  |
| C=C1OC(c2ccccc2NC)=NC12CCCCC2 | > 100 | > 100 | > 100 | > 100 | > 100 | > 100 | > 100 | > 100 | > 100 | > 100 |  |
